The values below come from US20100183597A1, “DRAK2 EXPRESSION IS ASSOCIATED WITH DIABETES” (priority 2007, published 2010).

Data set [1] deals with Drak2. Nature of the data set: Drak2 protein levels in siRNA-transfected NIT-1 insulinoma cells by flow cytometry. In kind it is cell-based, mouse. The note with it: NIT-1 cells; for Drak2 protein upregulation stimulated by FFA: siRNA transfected, cultured 24 h with FFA, intracellular Drak2 by flow cytometry (FIG. 2A); for Drak2 protein upregulation stimulated by cytokines: 24 h (FIG. 10B). The text has this: (§1) Drak2 Tg and WT islets were digested with 0.05% trypsin-EDTA to obtain single cell suspensions. The cells were fixed with 4% paraformaldehyde and permeabilized with 0.2% Triton X-100. They were stained with rabbit anti-Drak2 Ab (Abgent, San Diego, Calif.; 1:50 dilution) and anti-insulin mAb (Sigma, St. Louis, Mo.; 1:500 dilution). Subsequently, they were stained with FITC-conjugated sheep anti-rabbit antibody (Chemicon, Temecula, Calif.), and PE-conjugated goat anti-mouse antibody (Jackson Immunoresearch, West Grove, Pa.), and analyzed by 2-color flow cytometry. Dispersed islet cells or small interfering RNA (siRNA)-transfected NIT-1 cells were also analyzed for apoptosis by flow cytometry using FITC-annexin V staining (Murakami et al., 2004).
(§2) NIT-1 cells, derived from mouse insulinoma, were transfected with siRNA using Lipofectamine 2000 (Invitrogen, Burlington, Ontario) according to the manufacturer's instructions. For Drak2 siRNA, the oligonucleotide RNA sequences were CAUCCCUGAAGAUGGCAGCtt and GCUGCCAUCUUCAGGGAUGtt. The control was the scrambled sequence of said siRNA with following sequences: 5′CCCUAAGUGUAGGACGCACtt and 3′GUGCGUCCUACACUUAGGGtt. Single stranded RNA pairs were annealed by being incubated for 1 min at 900 C, and then cooled down to room temperature over 45 min. The final concentration of double-stranded siRNA was 20 μM for transfection.
(§3) Dispersed islet cells were fixed with 4% paraformaldehyde and permeabilized with 0.2% Triton X-100. For Drak2 and insulin detection, the cells were stained as described for confocal microscopy, and analyzed by 2-color flow cytometry. Dispersed islet cells or small interfering RNA (siRNA)-transfected NIT-1 cells were also analyzed for apoptosis by flow cytometry with FITC-annexin V staining (Murakami et al., 2004)).
(§4) NIT-1 cells, derived from mouse insulinoma, were transfected with siRNA using Lipofectamine 2000 (Invitrogen, Burlington, Ontario) according to the manufacturer's instructions. Two siRNAs specific for Drak2 were employed. For Drak2 siRNA #1162, the oligonucleotide RNA sequences were CAUCCCUGAAGAUGGCAGCtt and GCUGCCAUCUUCAGGGAUGtt. For Drak2 siRNA #592, the oligonucleotide RNA sequences were UAACAUUGUUCACCUUGAUtt and AUCAAGGUGAACAAUGUUAtt. The control siRNA was the scrambled sequence of siRNA #1162 with the following sequences: 5′CCCUAAGUGUAGGACGCACtt and 3′GUGCGUCCUACACUUAGGGtt. Single-stranded RNA pairs were annealed by incubation for 1 min at 900 C, and then cooled down to room temperature over 45 min. The final concentration of double-stranded siRNA was 10 nM for transfection.
(In general: Flow cytometry measures light scatter and fluorescence of single cells or particles in a stream.)

For data set [2], the system named is NIT-1 cells. The data set can be described thus: Apoptosis of NIT-1 cells by annexin V staining and flow cytometry. The format is cell-based, mouse. Conditions: for FFA-induced apoptosis (annexin V): cultured 24 h with FFA (FIG. 2B).
From the text: as §1, §2, §3, §4
NIT-1 cells were treated with IFN-g+IL-1b for 72 hours, with or without […] rapamycin. Drak2 siRNA were transfected to some cells at 24 hour, the apoptosis of cells were measured with Annexin-v staining.

Data set [3] relates to p70S6 kinase. Nature of the data set: p70S6 kinase phosphorylation in NIT-1 cell lysates by immunoblotting. In kind it is cell-based, mouse. Conditions: NIT-1 cells, IFN-γ plus IL-1β or TNF-α plus IL-1β, siRNA transfected after 24 h, immunoblot after additional 24 h (FIG. 15B, 15C). How it is done: NIT-1 cells were transiently transfected with pCEP4-HA-Drak2 or empty vector pCEP4-HA. After 48 h, the cells were lysed and resolved in 10% SDS-PAGE (60 μg/lane) followed by immunoblotting. For HA-Drak2 expression, membrane was blotted with mouse anti-HA mAb (Santa Cruz, Santa Cruz, Calif.; 1:1000 dilution) followed by horse radish peroxidase (HRP)-conjugated sheep anti-mouse IgG (GE Health; 1:2000 dilution). To assess p70S6 kinase phosphorylation, the membrane was blotted with mouse anti-phospho-p70S6 kinase (Thr389) Ab (Cell Signaling, Danvers, Mass.; 1:1000 dilution) followed by HRP-conjugated sheep anti-mouse IgG (GE Health; 1:2000 dilution). The membrane was also blotted with rabbit anti-p70S6 kinase Ab (Cell Signaling, Danvers, Mass.; 1:1000 dilution) followed by HRP-conjugated donkey anti-rabbit IgG to show similar total p70S6 kinase protein. In some experiments, NIT-1 cells were stimulated with IFN-γ (1000 U/ml) plus IL-1β (0.5 ng/ml), or TNF-α (200 ng/ml) plus IL-1β (0.5 ng/ml). Twenty four hours later, they were transfected with two different Drak2 siRNAs (#592 and #1162), or with a control siRNA. After additional 24 hour, phospho-p70S6 kinase and total p70S6 kinase in the cell lysates were detected by immunoblotting as described above.
A general note: A western blot detects proteins with antibodies after separation by electrophoresis.

In data set [4] the test system is human islets. Nature of the data set: Inflammatory cytokine-induced apoptosis of human islets, annexin V flow cytometry. In kind it is cell-based. The note with it: TNF-a, IFN-g and IL1-b, 72 h (FIG. 19). The method, then:
FIG. 19—Drak2 siRNA (designed based on the mouse Drak2 sequence) effectively protects human islets from inflammatory cytokine-induced apoptosis. Human islets were treated with cytokines (IFN-γ (1000 U/ml), IL-1β (0.5 ng/ml), TNF-α (200 ng/ml), 24 h later, they were transfected with a combination of 2 Drak2 siRNA (#592 and #1162, 10 nM each). At 72 h, the islets were harvested, dispersed and tested for annexin V expression by flow cytometry. The percentage of apoptotic cells (annexin V positive) is shown.
as §3

[5] abbreviates: IFN-γ plus IL-1β or TNF-α plus IL-1β.

Consider “#592: Drak2 siRNA; oligonucleotide RNA sequences UAACAUUGUUCACCUUGAUtt and AUCAAGGUGAACAAUGUUAtt (SEQ ID Nos:7 and 8) (chain 1 UAACAUUGUUCACCUUGAUTT; chain 2 AUCAAGGUGAACAAUGUUATT; chemistry not fully specified)”, for which, in data set [1], the “Drak2 protein upregulation stimulated by FFA” value is “inhibited Drak2 protein upregulation”. Also, in data set [2] (siRNA transfected), the “FFA-induced apoptosis (annexin V)” value is listed as “prevented FFA-induced apoptosis”. In addition, in data set [3], the “cytokine-induced p70S6 kinase phosphorylation (phospho versus total p70S6 kinase)” value was “inhibited p70S6 kinase phosphorylation”.
As for “#1162: Drak2 siRNA; oligonucleotide RNA sequences CAUCCCUGAAGAUGGCAGCtt and GCUGCCAUCUUCAGGGAUGtt (SEQ ID Nos: 5 and 6)”, the “Drak2 protein upregulation stimulated by cytokines” value in data set [1] (setting [5]) is reported as “prevented Drak2 protein upregulation”. Also, the “Drak2 protein upregulation stimulated by FFA” value in data set [1] was “inhibited Drak2 protein upregulation”. Also, the “FFA-induced apoptosis (annexin V)” value in data set [2] (siRNA transfected) is reported as “prevented FFA-induced apoptosis”. For the same substance, the “cytokine-induced p70S6 kinase phosphorylation (phospho versus total p70S6 kinase)” value in data set [3] is listed as “inhibited p70S6 kinase phosphorylation”.
As for “Drak2 siRNA: Drak2 siRNA without number; Example 4 sequences CAUCCCUGAAGAUGGCAGCtt and GCUGCCAUCUUCAGGGAUGtt, the same as #1162 (GCUGCCAUCUUCAGGGAUGTT; RNA strands with 3' tt overhangs, overhang chemistry not given here, further chemistry not given here)”, the “apoptosis induced by IFN-γ+IL-1β (annexin V)” value in data set [2] (72 h, rapamycin 250 nM, Drak2 siRNA transfected at 24 h, alone or combined (FIG. 18)) is “reduce apoptosis”. Besides, in data set [2] (siRNA transfected, IFN-γ plus IL-1β or TNF-α plus IL-1β, 24 h (FIG. 10C)), the “cytokine-induced apoptosis (annexin V)” value is “dampened”.
Regarding “control siRNA: scrambled sequence of siRNA #1162: 5′CCCUAAGUGUAGGACGCACtt and 3′GUGCGUCCUACACUUAGGGtt (SEQ ID Nos: 9 and 10) (chain 1 CCCUAAGUGUAGGACGCACTT; chain 2 GUGCGUCCUACACUUAGGGTT; RNA strands with 3' tt overhangs, overhang chemistry not given here, further chemistry not given here) [reference compound]”, the “Drak2 protein upregulation stimulated by cytokines” value in data set [1] (setting [5]) was “no effect”. Also, the “cytokine-induced Drak2 protein expression” value in data set [1] (IFN-γ plus IL-1β or TNF-α plus IL-1β, siRNA transfected after 24 h, assayed at 48 h (FIG. 15A)) is “no effect”. The “Drak2 protein upregulation stimulated by FFA” value in data set [1] was “no effect”. In data set [3], the “cytokine-induced p70S6 kinase phosphorylation (phospho versus total p70S6 kinase)” value is “no effect”. In addition, the “effect on cytokine-induced apoptosis of human islets” value in data set [4] is recorded as “no effect”.
